Common to all, as to format: cell-based, human
The subject of one series is T cells (CD3^+CD56^-). The experiment in a line: T cell numbers, viability and apoptosis in PBMCs (flow cytometry, DiOC6(3)/PI staining). The conditions noted are these: idelalisib 10 µM, 48 hours; PBMCs from patients with CLL (n = 6 - 8); Figure 4G. The method, then:
(§1) To evaluate absolute cell numbers, an equal volume of PKH26 reference microbeads (Sigma-Aldrich) was added to each sample after staining for immune subset identification. Microbeads (5x10^3) were acquired by flow cytometry and absolute numbers of each immune population within the sample were calculated. Normalized percentage values were calculated considering the control (DMSO)-treated cells as 100%.
(§2) Cell viability and apoptosis were evaluated by double-staining with the mitochondrial inner transmembrane potential (ΔΨm)-sensitive dye DiOC6(3) (3,3'-dihexyloxacarbocyanine iodide; Sigma-Aldrich) and the exclusion dye propidium iodide (PI; Immunostep), allowing identification of apoptotic [DiOC6(3)^low PI^-] and dead [PI^+] cells as per Proc. Natl. Acad. Sci. U.S.A. (2014) 111(8):3020-3025 and Methods Mol. Biol. (2016) 1419:1-16. Briefly, PBMCs were resuspended in culture medium containing 20 nM DiOC6(3) and incubated for 30 minutes at 37 °C. Then, PI (1 µg/mL) was added and cells were further incubated for 10 minutes at room temperature (RT). Cells were analyzed by flow cytometry considering DiOC6(3)^+PI^- cells as viable. In some experiments, apoptosis was evaluated by staining with Annexin V/PI. Thus, PBMCs were incubated in Annexin V binding buffer containing 5 µg/mL Annexin V-FITC (Biolegend) for 15 minutes at RT and PI (1 µg/mL) was subsequently added. Data were normalized to the untreated control as a percentage. Only samples with at least 60% of viable cells (DiOC6(3)^+; Annexin V^-) in the control (DMSO) condition were employed in this study.
(§3) The effect of EC-7072 toward healthy immune subsets, T lymphocytes and natural killer (NK) cells, which are chronically exposed to leukemia cells in the peripheral blood of patients with CLL was assessed by: • (i) incubating PBMCs isolated from patients with CLL (n = 10) following treatment with increasing concentrations of EC-7072 (0 - 400 nM) for 24 hours. Numbers of T cells (CD3^+CD56^-) (Figure 2A) and NK cells (CD3^-CD56^+) (Figure 2B) were evaluated by flow cytometry and normalized to their respective control (DMSO) condition for each individual patient to obtain percentage of relative number of T cells and NK cells, respectively; • (ii) incubating PBMCs isolated from patients with CLL (n = 6 - 10) following treatment with increasing concentrations of EC-7072 (0 - 400 nM) for 24 hours. Viability of immune subsets (leukemia cells, T cells and NK cells) was determined by cytofluorometric assessment of DiOC6(3)/PI staining and normalized to their respective control (DMSO) condition for each individual patient to obtain percentage of viable [DiOC6(3)^+] cells (Figures 2C and 2D); • (iii) incubating PBMCs isolated from patients with CLL (n = 11) following treatment with DMSO or EC-7072 (200 nM) for 24 hours. Numbers of CD4^+ cells (Figure 2E) and CD8^+ T cells (Figure 2F) were evaluated by flow cytometry and normalized to their respective control (DMSO) condition for each individual experiment; • (iv) incubating PBMCs isolated from healthy donors (n = 15) following treatment with EC-7072 (200 nM) for 24 hours. […]

Another series concerns NK cells (CD3^-CD56^+). Description: NK cell numbers, viability and apoptosis in PBMCs (flow cytometry, DiOC6(3)/PI staining). The conditions noted are these: idelalisib 10 µM, 48 hours; PBMCs from patients with CLL (n = 6 - 8); Figure 4G. The protocol:
as §1, §2, §3

Series [1] has as its system primary fibroblasts from healthy donors. Description: Cell death of primary fibroblasts by PI staining. The conditions noted are these: 200 nM, 24 hours; n = 4. The method, then:
(§4) Effectiveness of EC-7072 against different B-cell malignancies was assessed by; • (i) incubating primary fibroblasts from healthy donors (n = 4) and HK-2 cells from healthy human adult kidney (n = 3) following treatment with MTA (200 nM) or EC-7072 (200 nM) for 24 hours. Cell death was evaluated by PI staining to obtain the percentages corresponding to the [PI^+] subset (Figure 5A) and the mean percentage of [PI^+] cells (Figure 5B); • (ii) treating MEC-1, GRANTA-519, Z-138, JVM-2, CA-46, Ramos, Raji and U266 cell lines (n = 3) following treatment with EC-7072 (500 nM) followed by incubation for 24 hours. Cell viability was assessed by DiOC6(3)/PI staining and normalized to control (DMSO) condition to obtain mean percentage of viable [DiOC6(3)^+] cells (Figure 5C).

Another series deals with HK-2 cells. The experiment in a line: Cell death of HK-2 cells by PI staining. The conditions noted are these: 200 nM, 24 hours; n = 3. The method, then: as §4
For the next series, the system named is primary CLL cells. Description: Leukemia cell viability and apoptosis by DiOC6(3)/PI staining and flow cytometry. The conditions noted are these: Z-VAD-fmk 0-100 µM pretreatment, then EC-7072 200 nM for 24 hours; n = 6. The method, then: as §2
The in vitro cytotoxic activity of EC-7072 against primary CLL cells was assessed by: • (i) incubating PBMCs isolated from patients with CLL (n = 13) following treatment with increasing concentrations of EC-7072 (0 - 400 nM) for 24 hours. Numbers of leukemia cells were evaluated by flow cytometry and normalized to their respective control (DMSO) condition for each individual patient to obtain percentage of leukemia cells (Figure 1A); • (ii) incubating PBMCs from patients with CLL (n = 10) with or without EC-7072 (100-400 nM) for 24 hours. Viability of leukemia cells was determined by cytofluorometric assessment of DiOC6(3)/PI staining and normalized to their respective control condition to obtain percentage viability (Figure 1B); • (iii) incubating PBMCs from patients with CLL (n = 10) with increasing concentrations of EC-7072 (0 - 400 nM) for 24 hours. Apoptosis of leukemia cells was determined by DiOC6(3)/PI staining and flow cytometry to obtain the mean percentages of apoptotic [DiOC6(3)^low PI^-] and dead [PI^+] cells (Figure 1C); • (iv) incubating PBMCs from patients with CLL (n = 10) with or without EC-7072 (200 nM) for 12 to 72 hours. Viability of leukemia cells was determined by DiOC6(3)/PI staining and normalized to their respective control condition to obtain percentage viability (Figure 1D); • (v) incubating PBMCs from patients with CLL (n = 24) with MTA (200 nM) or EC-7072 (200 nM) for 24 hours. Leukemia cell death was determined by DiOC6(3)/PI staining and flow cytometry to obtain the mean percentages of apoptotic [DiOC6(3)^low PI^-] and dead [PI^+] cells (Figure 1E); • (vi) incubating PBMCs from patients with CLL (n = 63) or healthy donors (n = 20) with or without EC-7072 (200 nM) for 24 hours. Viability of leukemia cells and healthy B cells was evaluated by DiOC6(3)/PI staining and normalized to their respective control condition to obtain percentage viability (Figure 1F); • (vii) incubating PBMCs from patients with CLL (n = 62) following treatment with EC-7072 (200 nM) for 24 hours and obtaining a cytogenetic profile for each patient. Viability of leukemia cells was evaluated by DiOC6(3)/PI staining and normalized to their respective control (DMSO) condition for each individual patient to obtain the percentage of viable [DiOC6(3)^+] cells (Figure 1G); • (viii) incubating PBMCs from patients with CLL (n = 59) following treatment with EC-7072 (200 nM) for 24 hours and determining mutational status of IgHV for each patient. Viability of leukemia cells was evaluated by DiOC6(3)/PI staining and normalized to their respective control (DMSO) condition for each individual patient to obtain the percentage of viable [DiOC6(3)^+] cells (Figure 1H). […]
In general terms: A flow cytometer gives signals particle by particle.

The next series has as its system active caspase-3. The experiment in a line: Caspase-3 activity assay in leukemia cells (flow cytometry). The conditions noted are these: Z-VAD-fmk 0-100 µM pretreatment, then EC-7072 200 nM for 24 hours; n = 6. The protocol: Intracellular levels of activated caspase-3 were measured by using CaspGLOW™ Fluorescein Active Caspase-3 Staining Kit (Invitrogen). In brief, EC-7072 (200 nM) or DMSO-treated PBMCs from patients with CLL were incubated with FITC-DEVD-fmk for 30 minutes at 37 °c and fluorescence was next analyzed by flow cytometry in leukemia cells. For some experiments, cells were pretreated for 2 hours with the indicated doses of the broad-spectrum caspase inhibitor Z-VAD-fmk.
The induction of caspase-dependent apoptosis on primary CLL cells by EC-7072 was assessed by: • (i) incubating PBMCs isolated from patients with CLL (n = 6) following treatment with increasing concentrations of EC-7072 (0 - 400 nM) for 24 hours. Apoptosis of leukemia cells was evaluated by cytofluorometric assessment of Annexin V/PI staining to obtain percentages of apoptotic [Annexin V^+ PI^-] and dead [PI^+] cells (Figure 3A); • (ii) incubating PBMCs and T cells isolated from patients with CLL (n = 3) following treatment with EC-7072 (200 nM) for 24 hours. T cell apoptosis was evaluated by cytofluorometric assessment of Annexin V/PI staining to obtain percentages of viable [Annexin V-], apoptotic [Annexin V^+ PI^-] and dead [PI^+] cells (Figure 3B); • (iii) incubating PBMCs isolated from patients with CLL (n = 6) following treatment with EC-7072 (0 - 400 nM) for 24 hours. […]

With `CC[C@H](Nc1ncnc2[nH]cnc12)c1nc2cccc(F)c2c(=O)n1-c1ccccc1` [Idelalisib, reference compound], the “viability of T cells” value in the series on T cells (CD3^+CD56^-) is reported as “negligible effects”. In the series with NK cells (CD3^-CD56^+), the “viability of NK cells” value is given as “negligible effects”.

For `COC(C(=O)C(O)C(C)O)C1Cc2cc3cc(OC4CC(OC5CC(O)C(O)C(C)O5)C(O)C(C)O4)c(C)c(O)c3c(O)c2C(=O)C1OC1CC(OC2CC(OC3CC(C)(O)C(O)C(C)O3)C(O)C(C)O2)C(O)C(C)O1` (stereo not drawn) [MTA, Mithramycin A, reference compound], in series [1], the “viability of primary human fibroblasts (PI^+ cells)” value is recorded as “high toxicity”. Moreover, the “viability of HK-2 cells (PI^+ cells)” value in the series with HK-2 cells is on record as “high toxicity”.

On to Z-VAD-fmk [reference compound], for which, in the series on primary CLL cells, the “death of primary CLL cells induced by EC-7072 after Z-VAD-fmk pretreatment” value was “completely abrogated the death”. Further, in the series on active caspase-3, the “active caspase-3 levels on leukemia cells after Z-VAD-fmk pretreatment” value was “decrease of active caspase-3 levels”.

The values above are taken from patent publication EP3797781A1, “USE OF EC-7072 AND SYNERGIC COMPOSITIONS THEREOF IN TREATMENT OF CHRONIC LYMPHOCYTIC LEUKEMIA” (priority 2019, dated 2021).
